Data as given in patent US4556715A, “Nicotinic acid derivatives” (Kyorin Pharmaceutical Co., Ltd., priority 1980, dated 1985).
Where two headings read alike, the source gives them in different places.

How the values were obtained:
[1] = system: serum and liver lipid levels in rats; assay: Serum and liver lipid levels and relative liver weight in rats (25 mg/kg, 10 days); assay type: in vivo, male Wistar rats; settings: Table 4; for Liver lipid levels Ch / Liver lipid levels PL / Liver lipid levels TG / Relative liver weight / Serum lipid levels Ch / Serum lipid levels PL / Serum lipid levels TG: 25 mg/kg p.o. 10 days, Mean ± S.E. (n = 7); for Liver lipid levels Ch, relative to Control (100) / Liver lipid levels PL, relative to Control (100) / Liver lipid levels TG, relative to Control (100) / Relative liver weight, relative to Control (100) / Serum lipid levels Ch, relative to Control (100) / Serum lipid levels PL, relative to Control (100) / Serum lipid levels TG, relative to Control (100): in parentheses
Procedure: (3) The present compounds and KCD-232 were orally given to male Wistar rats weighing 160-180 g once a day at a dose of 25 mg/kg b.w. for 10 days. Rats were subjected to fast for 4 hr immediately after the last administration of compounds, thereafter they were sacrificed by decapitation and blood was collected, clotted and centrifuged to obtain serum. The liver was removed quickly and weighed. Total lipids were extracted from the serum and liver, and then the levels of total Ch, TG and PL were determined with colorimetric methods.

[2] = system: serum and liver lipid levels in rats; assay: Serum and liver lipid levels and relative liver weight in rats (100 mg/kg, 10 days); assay type: in vivo, Male rats of the Wistar strain; settings: for response vs control in vivo at 100 mg/kg: Rattus norvegicus, po; for response vs control in vivo at 100 mg/kg / Relative liver weight, relative to Control (100): in parentheses, Control = (100); for Liver lipid levels Ch / Liver lipid levels PL / Liver lipid levels TG / Relative liver weight / Serum lipid levels Ch / Serum lipid levels PL / Serum lipid levels TG: Mean ± S.E. (n = 9)
Procedure: (2) Male rats of the Wistar strain weighing 160-180 g were fed a stock deit (CE-2, Japan CLEA, Tokyo) and water ad libitum. The present compounds and KCD-232 were suspended, respectively, in a 0.5% of CMC solution and give orally to rats once a day at a dose of 100 mg/kg b.w. for 10 days.
Control rats were received the 0.5% CMC solution alone. The diet was withdrawn immediately after the last administration of compounds. Animals were sacrificed by decapitation 4 hr after the last administration and blood was collected, clotted and centrifuged to obtain serum. The liver was excised quickly and weighed. Total lipids were extracted from the serum and liver, and the levels of Ch, TG and PL were determined colorimetrically.

[3] = in vivo; settings: mouse, po, p o, male ICR mice
Source text: The present compounds were given to 6 week-old male mice of the ICR strain and their acute toxicity was examined.

[4] = system: serum and liver lipid levels in normal rats; assay: Effects on relative liver weight, serum and liver lipid levels in normal rats (100 mg/kg, 7 days); assay type: in vivo, Male Wistar strain rats
Procedure: (1) Effects on relative liver weight, serum and liver lipid levels in normal rats
Male Wistar strain rats, weighing 180-210 g were orally administered the present compounds (X=Cl, n1 =2, 3, 4 and n2 =1) and 4-(4-chlorobenzyloxy)benzyl nicotinate (KCD-232), being X=Cl, n1 =1, n2 =1, respectively, which were suspended in 0.5% carboxymethyl cellulose (CMC) solution once a day at a dose of 100 mg/kg b.w. for 7 days. The last administration was occured in rats fasted overnight. At 4 hr later blood was withdrawn from jugular vein, clotted and centrifuged to obtain serum. The liver was rapidly removed and weighed. Total lipids were extracted from the serum and liver, and cholesterol (Ch), triglycerides (TG) and phospholipids (PL) levels were determined.

[5] = 240 h, Table 3, read-out: Liver lipid levels PL, relative to Control (100)
[6] = Table 3, read-out: Liver lipid levels Ch, relative to Control (100)
[7] = Table 3, read-out: Liver lipid levels TG, relative to Control (100)
[8] = Table 3, read-out: Serum lipid levels Ch, relative to Control (100)
[9] = Table 3, read-out: Serum lipid levels PL, relative to Control (100)
[10] = Table 3, read-out: Serum lipid levels TG, relative to Control (100)
[11] = Table 3, 100 mg/kg p.o. 10 days
[12] = 240 h, Table 2, read-out: Liver lipid levels PL, relative to Control (100)
[13] = Table 2, read-out: Liver lipid levels Ch, relative to Control (100)
[14] = Table 2, read-out: Liver lipid levels TG, relative to Control (100)
[15] = Table 2, read-out: Serum lipid levels Ch, relative to Control (100)
[16] = Table 2, read-out: Serum lipid levels PL, relative to Control (100)
[17] = Table 2, read-out: Serum lipid levels TG, relative to Control (100)
[18] = Table 2, 100 mg/kg p.o. 10 days
[19] = Table 1, 100 mg/kg p.o. 7 days, fasted overnight, mean ± S.E. (n = 6)
[20] = Table 1, in parentheses, Control = (100)

O=C(OCCCc1ccc(OCc2ccc(Cl)cc2)cc1)c1cccnc1 [n1=1, n2=3, 3-[4-(4-Chlorobenzyloxy)phenyl]propyl nicotinate]
Liver lipid levels Ch [1]: 3.23 ± 0.17 mg/g liver
Liver lipid levels PL [1]: 38.2 ± 0.5 mg/g liver
Liver lipid levels TG [1]: 3.80 ± 0.50 mg/g liver
Relative liver weight [1]: 3.53 ± 0.08 g/100 g b.w.
Serum lipid levels Ch [1]: 66.4 ± 5.3 mg/dL
Serum lipid levels PL [1]: 85.8 ± 4.8 mg/dL
Serum lipid levels TG [1]: 29.2 ± 1.7 mg/dL
Liver lipid levels Ch, relative to Control (100) [1]: 99.4
Liver lipid levels PL, relative to Control (100) [1]: 100.5
Liver lipid levels TG, relative to Control (100) [1]: 51.1
Relative liver weight, relative to Control (100) [1]: 100
Serum lipid levels Ch, relative to Control (100) [1]: 84.7
Serum lipid levels PL, relative to Control (100) [1]: 79.3
Serum lipid levels TG, relative to Control (100) [1]: 77.2
response vs control in vivo at 100 mg/kg [2, 5]: 96.1%
response vs control in vivo at 100 mg/kg [2, 6]: 97.8%
response vs control in vivo at 100 mg/kg [2, 7]: 73%
response vs control in vivo at 100 mg/kg [2, 8]: 83.7%
response vs control in vivo at 100 mg/kg [2, 9]: 79.4%
response vs control in vivo at 100 mg/kg [2, 10]: 63.3%
Liver lipid levels Ch [2, 11]: 2.27 ± 0.09 mg/g liver
Liver lipid levels PL [2, 11]: 34.8 ± 0.5 mg/g liver
Liver lipid levels TG [2, 11]: 5.24 ± 0.40 mg/g liver
Relative liver weight [2, 11]: 3.70 ± 0.05 g/100 g b.w.
Serum lipid levels Ch [2, 11]: 81.7 ± 2.7 mg/dL
Serum lipid levels PL [2, 11]: 124 ± 5.5 mg/dL
Serum lipid levels TG [2, 11]: 79.5 ± 10.4 mg/dL
Relative liver weight, relative to Control (100) ([2]; Table 3): 98
LD50 [3]: > 4000 mg/kg

O=C(OCCCCCCc1ccc(OCc2ccc(Cl)cc2)cc1)c1cccnc1 [n1=1, n2=6, 6-[4-(4-Chlorobenzyloxy)phenyl]hexyl nicotinate]
Liver lipid levels Ch [1]: 2.83 ± 0.18 mg/g liver
Liver lipid levels PL [1]: 38.8 ± 1.1 mg/g liver
Liver lipid levels TG [1]: 5.48 ± 0.93 mg/g liver
Relative liver weight [1]: 3.91 ± 0.09 g/100 g b.w.
Serum lipid levels Ch [1]: 70 ± 5.5 mg/dL
Serum lipid levels PL [1]: 100 ± 5.9 mg/dL
Serum lipid levels TG [1]: 33.5 ± 2.5 mg/dL
Liver lipid levels Ch, relative to Control (100) [1]: 87.1
Liver lipid levels PL, relative to Control (100) [1]: 102.1
Liver lipid levels TG, relative to Control (100) [1]: 73.7
Relative liver weight, relative to Control (100) [1]: 111
Serum lipid levels Ch, relative to Control (100) [1]: 89.3
Serum lipid levels PL, relative to Control (100) [1]: 92.5
Serum lipid levels TG, relative to Control (100) [1]: 88.6
response vs control in vivo at 100 mg/kg [2, 5]: 106%
response vs control in vivo at 100 mg/kg [2, 6]: 107%
response vs control in vivo at 100 mg/kg [2, 7]: 83.7%
response vs control in vivo at 100 mg/kg [2, 8]: 75.3%
response vs control in vivo at 100 mg/kg [2, 9]: 68.9%
response vs control in vivo at 100 mg/kg [2, 10]: 32.1%
Liver lipid levels Ch [2, 11]: 2.48 ± 0.10 mg/g liver
Liver lipid levels PL [2, 11]: 38.5 ± 0.7 mg/g liver
Liver lipid levels TG [2, 11]: 6.01 ± 0.76 mg/g liver
Relative liver weight [2, 11]: 3.72 ± 0.06 g/100 g b.w.
Serum lipid levels Ch [2, 11]: 73.5 ± 2.3 mg/dL
Serum lipid levels PL [2, 11]: 107 ± 3.1 mg/dL
Serum lipid levels TG [2, 11]: 40.3 ± 3.5 mg/dL
Relative liver weight, relative to Control (100) ([2]; Table 3): 98
LD50 [3]: > 4000 mg/kg

O=C(OCc1ccc(OCCCCc2ccc(Cl)cc2)cc1)c1cccnc1 [n1=4, n2=1, 4-[4-(4-chlorophenyl)butoxy]benzyl nicotinate]
lipid lowering effects compared with KCD-232 (in words) ([2]; 100 mg/kg p.o. 10 days): the lipid lowering effects were superior to that of KCD-232
response vs control in vivo at 100 mg/kg [2, 12]: 107%
response vs control in vivo at 100 mg/kg [2, 13]: 94.4%
response vs control in vivo at 100 mg/kg [2, 14]: 80.5%
response vs control in vivo at 100 mg/kg [2, 15]: 67.2%
response vs control in vivo at 100 mg/kg [2, 16]: 60.9%
response vs control in vivo at 100 mg/kg [2, 17]: 24.2%
Liver lipid levels Ch [2, 18]: 2.87 ± 0.13 mg/g liver
Liver lipid levels PL [2, 18]: 40.8 ± 0.7 mg/g liver
Liver lipid levels TG [2, 18]: 5.06 ± 0.69 mg/g liver
Relative liver weight [2, 18]: 4.04 ± 0.10 g/100 g b.w.
Serum lipid levels Ch [2, 18]: 58.3 ± 3.3 mg/dL
Serum lipid levels PL [2, 18]: 90.5 ± 4.6 mg/dL
Serum lipid levels TG [2, 18]: 29.9 ± 2.3 mg/dL
Relative liver weight, relative to Control (100) ([2]; Table 2): 105
serum Ch, TG and PL (in words) ([4]; 100 mg/kg p.o. 7 days, compared with control): significantly reduced serum Ch, TG and PL
reduction of liver TG level compared with control ([4]; 100 mg/kg p.o. 7 days, p<0.05): 32%
Liver lipid levels Ch [4, 19]: 3.43 ± 0.10 mg/g liver
Liver lipid levels PL [4, 19]: 30.2 ± 1.4 mg/g liver
Liver lipid levels TG [4, 19]: 5.06 ± 1.21 mg/g liver
Serum lipid levels Ch [4, 19]: 45.3 ± 3.8 mg/dL
Serum lipid levels PL [4, 19]: 60.4 ± 4.8 mg/dL
Serum lipid levels TG [4, 19]: 16 ± 3.2 mg/dL
Relative liver weight ([4]; Table 1, 100 mg/kg p.o. 7 days, mean ± S.E. (n = 6)): 3.16 ± 0.05 g/100 g b.w.
Liver lipid levels Ch, relative to Control (100) [4, 20]: 97
Liver lipid levels PL, relative to Control (100) [4, 20]: 82
Liver lipid levels TG, relative to Control (100) [4, 20]: 69
Relative liver weight, relative to Control (100) [4, 20]: 102
Serum lipid levels Ch, relative to Control (100) [4, 20]: 60
Serum lipid levels PL, relative to Control (100) [4, 20]: 59
Serum lipid levels TG, relative to Control (100) [4, 20]: 47
LD50 [3]: > 4000 mg/kg

O=C(OCc1ccc(OCCCCCCc2ccc(Cl)cc2)cc1)c1cccnc1 [n1=6, n2=1, 4-[6-(4-Chlorophenyl)hexyloxy]benzyl nicotinate]
Liver lipid levels Ch [1]: 3.14 ± 0.17 mg/g liver
Liver lipid levels PL [1]: 38.9 ± 0.8 mg/g liver
Liver lipid levels TG [1]: 3.03 ± 0.41 mg/g liver
Relative liver weight [1]: 3.91 ± 0.08 g/100 g b.w.
Serum lipid levels Ch [1]: 54.2 ± 4.9 mg/dL
Serum lipid levels PL [1]: 72.2 ± 5.6 mg/dL
Serum lipid levels TG [1]: 24 ± 2.1 mg/dL
Liver lipid levels Ch, relative to Control (100) [1]: 96.7
Liver lipid levels PL, relative to Control (100) [1]: 102.4
Liver lipid levels TG, relative to Control (100) [1]: 40.7
Relative liver weight, relative to Control (100) [1]: 111
Serum lipid levels Ch, relative to Control (100) [1]: 69.1
Serum lipid levels PL, relative to Control (100) [1]: 66.7
Serum lipid levels TG, relative to Control (100) [1]: 63.5
response vs control in vivo at 100 mg/kg [2, 12]: 109%
response vs control in vivo at 100 mg/kg [2, 13]: 94.4%
response vs control in vivo at 100 mg/kg [2, 14]: 73.9%
response vs control in vivo at 100 mg/kg [2, 15]: 74.6%
response vs control in vivo at 100 mg/kg [2, 16]: 65.9%
response vs control in vivo at 100 mg/kg [2, 17]: 25.6%
Liver lipid levels Ch [2, 18]: 2.87 ± 0.08 mg/g liver
Liver lipid levels PL [2, 18]: 41.6 ± 0.5 mg/g liver
Liver lipid levels TG [2, 18]: 4.67 ± 0.32 mg/g liver
Relative liver weight [2, 18]: 4.17 ± 0.07 g/100 g b.w.
Serum lipid levels Ch [2, 18]: 64.7 ± 3 mg/dL
Serum lipid levels PL [2, 18]: 97.8 ± 3.8 mg/dL
Serum lipid levels TG [2, 18]: 31.7 ± 2.8 mg/dL
Relative liver weight, relative to Control (100) ([2]; Table 2): 108
LD50 [3]: > 4000 mg/kg
